Measurements taken from patent US20240415801A1, “Methods and Compositions for Treating Fibroids” (Lundquist Institute for Biomedical Innovation at …, priority 2023, published 2024).

Assays:
fibroid xenografts [1] = test: Total collagen enzyme-linked immunosorbent assay of xenografts (Example 1); type: in vivo, SCID/Beige mice; conditions: 20 mg/kg daily, 8 weeks, vs controls
Method: The total collagen content in xenografts was assessed in duplicate using the QuickZyme Total Collagen Assay Kit (QuickZyme Biosciences, Leiden, Netherlands), following the manufacturer's instructions as previously described. Absorbance readings were taken spectrophotometrically at a wavelength of 570 nm, and concentrations were determined by comparing sample optical density values to a standard curve. Total collagen levels were quantified as μg/ml of protein and reported as fold change relative to the vehicle group.

fibroid xenografts [2] = test: Immunohistochemistry and Masson's trichrome staining of xenografts (Example 1); type: in vivo, SCID/Beige mice
Method: Tissues were fixed in 4% paraformaldehyde and subsequently embedded in paraffin, and 5-micron sections were cut and mounted onto glass slides. Staining procedures, including Masson's trichrome stain (HT15-1 KT, Sigma-Aldrich), and immunohistochemistry, were conducted as previously described. Primary antibodies utilized in this study included rabbit anti-Ki67 (dilution 1:250, 27309-1-AP, Proteintech Group, Inc, Rosemont, IL, USA), rabbit anti-cleaved caspase-3 (dilution 1:50, #9664, Cell Signaling Technology, Danvers, MA, USA), rabbit anti-CCND1 (dilution 1:50, #55506, Cell Signaling Technology), and mouse anti-E2F1 (dilution 1:50, sc-251, Santa Cruz Biotechnology, Inc., Dallas, TX, USA).

[3] = Blood chemistry panel (Example 1); type: in vivo, SCID/Beige mice; conditions: 20 mg/kg daily i.p.
Method: After 8 weeks of treatment with either the vehicle or Bay, plasma chemistry was analyzed. Specifically, 100 μL of plasma was transferred into the Comprehensive Diagnostic Profile Rotor (#500-1038, Abaxis, Union City, CA, USA). Subsequently, the levels of glucose, creatinine, BUN, phosphorus, sodium, albumin, alkaline phosphatase, serum glutamic pyruvic transaminase (SGPT; ALT), total protein, globulin, total bilirubin, and amylase were assessed using the VetScan VS2 chemistry analyzer (Abaxis, Union City, CA, USA) as previously described.

fibroid xenografts [4] = test: Xenograft mouse fibroid model, tumor weight (Example 2); type: in vivo, ovariectomized CB-17 SCID/Beige mice; conditions: 5 mg/kg i.p. (every other day / three times per week), two months, vs matched controls
Description: Portions of uterine fibroids (intramural, 2-5 cm in diameters) (n=13) were obtained from patients at Harbor-UCLA Medical Center. Prior approval from the Institutional Review Board (18CR-31752-01 R) at the Lundquist Institute was obtained. Informed consent was obtained from all the patients participating in the study who were not taking any hormonal medications for at least 3 months prior to surgery. The fibroids used in this study were from African Americans (n=3), Hispanics (n=9) and Asians (n=1) women aged 35-57 years (mean 46±6.5 years). The MED12 mutation status of all fibroids was determined by PCR amplification and Sanger sequencing (Laragen Inc. Culver City, CA). […] The missense mutations in exon 2 included c.130G>A (p.Gly44Ser) (n=4), c.131 G>A (p.Gly44Asp) (n=2) and c.131 G>T (p.Gly44Val) (n=1). The tissues were snap frozen and stored in liquid nitrogen for further analysis as previously described (2, 3).
Portions of liver, kidney, heart were dissected and frozen.

[5] = test system: primary fibroid smooth muscle cells; conditions: refs [10, 93]; cited from earlier work
[6] = Tolerability and body weight of xenograft mice (Example 2); conditions: 5 mg/kg/three times per week
Method: 9-12-weeks-old female ovariectomized SCID/Beige mice (Charles River Laboratories) were implanted with pellets (Innovative Research of America) containing estradiol (0.05 mg/90 d release) and progesterone (25 mg/60 d release) as previously reported (4, 5). […] After two months of treatment animals were sacrificed, and blood was obtained by cardiac puncture.
Briefly, freshly obtained fibroids from hysterectomies was cut aseptically into small pieces (4-5-mm3 cubes) using a razor blade and weighed. Equal weights of the explants from the same patient were implanted in the flank of SCID mice. […] After two months of treatment animals were sacrificed, and blood was obtained by cardiac puncture.

fibroid xenografts [7] = test: Immunoblotting of fibroid xenografts (Example 1); type: in vivo, SCID/Beige mice; conditions: 20 mg/kg daily, 8 weeks
Description: Protein extracted from the xenografts underwent immunoblotting as previously described. Primary antibodies targeting COL3A1, FN1, SPARC, TDO2, and Cleaved Caspase 3 were purchased from Proteintech Group, Inc. (Chicago, IL, USA). Band densities of specific proteins were quantified using the Image J program (http://imagej.nih.gov/ij/), and normalized to a Ponceau S staining band on the membrane. Results were expressed as means±SEM, and are presented as ratios relative to the control group, designated as 1.

human fibroid explants = test: Fibroid explant culture, qRT-PCR; type: cell-based; conditions: 5 μM, 48 hours
Method: Quantitative RT-PCR was performed as previously described. Selected gene expression levels were assessed utilizing the Invitrogen StepOne System, with normalization against 18S. Triplicate reactions were conducted, and relative mRNA expression was calculated using the comparative cycle threshold method (2−ΔΔCt), with results presented as fold change relative to the control group. The primer sequences used are shown in the following Sequence Table:
Equal weights of fibroid explants, aseptically cut from the same patient, were plated in 6-well plates containing complete medium. They were then incubated for 48 hours with either vehicle or Bay (5 μM).

SMILES: Cc1ccc(S(=O)(=O)/C=C/C#N)cc1 [Bay 11-7082]
- total collagen protein levels (fibroid xenografts [1]): significant decrease
- expression of cell cycle markers CCND1 and E2F1 (IHC) (fibroid xenografts [2]; 20 mg/kg daily, 8 weeks): decreased expression
- expression of collagens (Masson's trichrome staining) (fibroid xenografts [2]; 20 mg/kg daily, 8 weeks): significant decrease
- expression of proliferation marker Ki67 (IHC) (fibroid xenografts [2]; 20 mg/kg daily, 8 weeks): significant reduction
- smooth muscle content (Masson's trichrome staining) (fibroid xenografts [2]; 20 mg/kg daily, 8 weeks): no significant differences
- Cleaved caspase 3 staining (IHC) (fibroid xenografts [2]; drug versus vehicle): no significant difference
- changes in blood chemistry including liver, kidney and pancreatic function ([3]; 8 weeks): no changes
- Albumin (mean ± SEM) ([3]; plasma after 8 weeks): 3.5 ± 0.14 g/dL
- Alkaline phosphatase (mean ± SEM) ([3]; plasma after 8 weeks): 91.9 ± 20.05 U/l
- Amylase (mean ± SEM) ([3]; plasma after 8 weeks): 643.0 ± 36.82 U/l
- BUN (mean ± SEM) ([3]; plasma after 8 weeks): 27.1 ± 5.75 mg/dL
- Creatinine (mean ± SEM) ([3]; plasma after 8 weeks): 0.4 ± 0.03 mg/dL
- Globulin (mean ± SEM) ([3]; plasma after 8 weeks): 1.1 ± 0.24 g/dL
- Glucose (mean ± SEM) ([3]; plasma after 8 weeks): 261.0 ± 14.63 mg/dL
- Phosphorus (mean ± SEM) ([3]; plasma after 8 weeks): 10.1 ± 0.53 mg/dL
- SGPT (ALT) (mean ± SEM) ([3]; plasma after 8 weeks): 54.5 ± 8.71 U/l
- Sodium (mean ± SEM) ([3]; plasma after 8 weeks): 155.3 ± 1.35 mEq/l
- Total bilirubin (mean ± SEM) ([3]; plasma after 8 weeks): 0.3 ± 0.04 mg/dL
- Total protein (mean ± SEM) ([3]; plasma after 8 weeks): 4.6 ± 0.16 g/dL
- reduction in tumor weight (fibroid xenografts [4]): 40%
- expression of miR-29c and miR-200c [5]: induced
- effect on body weight [6]: no significant effects
- body weight ([6]; vehicle 26.16g±0.49): 25.42 g
- protein abundance of COL3A1, FN1, SPARC, TDO2 (Western blot) (fibroid xenografts [7]): inhibited
- mRNA levels of TLR3, TLR6, MyD88, TNFα, ESR1, HTR1B, TNFRSF11A (human fibroid explants): without significant effects
- mRNA levels of VEGFC, TDO2, TGFB3, LOX, E2F1, PRL, PGR, CKS2, SPARC, COL3A1, FN1, CCND1, IL8, IL6, IL1β (human fibroid explants): significant inhibition
- expression of miR-29c and miR-200c (human fibroid explants; fibroid explants): significant increase
